Experimental data taken from patent publication US10364256B2 (GlaxoSmithKline Intellectual Property Development Limited, priority 2015, dated 2019).

Columns and labels:
[1] = system: NQO1 specific enzyme activity in BEAS-2B cells (marker for NRF2 activation); experiment: BEAS-2B NQO1 MTT Assay; format: cell-based; settings: Homo sapiens, compound incubated 48 hours, read-out: EC50 (NQO1 specific enzyme activity induction)
Summary of the method: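 NQO1 specific activity induction is derived from the rate of MTT reduction (ΔOD/min, 570 nm, 30 min kinetic read) in crude lysates of BEAS-2B cells exposed to compound for 48 h. A 3-parameter fit gives EC50, reported as pEC50; part of each lysate goes to Cell Titer Glo.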

[2] = molecular target: T1, full length Keap1 protein / full length NRF2 protein (Homo sapiens, UniProt Q14145); experiment: NRF2-Keap1 TR-FRET Low Protein Assay; format: binding; settings: 1.25 nM Keap1 FlagHis and 2.5 nM biotin-NRF2 added
T1 construct: full length NRF2 protein and full length Keap1 protein (Keap1 exists a dimer) are used; His
Summary of the method: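 Flag-tagged full-length Keap1 was preincubated with compound (3-fold series) for 2.25 h at 37 °C in Tris pH 8.0/MgCl2/NaCl/BSA/DTT/CHAPS. Biotin-Avi-NRF2 (added at 2.5 nM) was then bound for 1.25 h at 4 °C. Eu-streptavidin/anti-Flag-APC TR-FRET (665/615 nm) was read after 1 h at RT, and pIC50 came from a four-parameter fit.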

[3] = molecular target: T2, Keap1 Kelch domain (321-609) / TAMRA-labeled 16mer NRF2 peptide (ETGE motif) (Homo sapiens, UniProt Q14145); experiment: NRF2-Keap1 FP Assay (Keap1 Kelch fluorescence polarization); format: binding; settings: 20 nM Keap1 (321-609), 8 nM Tamra labeled peptide
T2 construct: the Kelch domain (321-609) of Keap1 is used
Summary of the method: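 Compound dilutions (3-fold) were incubated 1 hr at room temperature with 20 nM Keap1 Kelch (321-609) and 8 nM TAMRA-labeled ETGE 16mer peptide. Buffer was 50 mM Tris pH 8.0, 100 mM NaCl, 5 mM MgCl2, 1 mM DTT, 2 mM CHAPS, 0.005% BSA. Fluorescence polarization (mP) was normalized to controls and fitted with a four-parameter equation to give pIC50.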

T1 sequence (Q14145 whole entry): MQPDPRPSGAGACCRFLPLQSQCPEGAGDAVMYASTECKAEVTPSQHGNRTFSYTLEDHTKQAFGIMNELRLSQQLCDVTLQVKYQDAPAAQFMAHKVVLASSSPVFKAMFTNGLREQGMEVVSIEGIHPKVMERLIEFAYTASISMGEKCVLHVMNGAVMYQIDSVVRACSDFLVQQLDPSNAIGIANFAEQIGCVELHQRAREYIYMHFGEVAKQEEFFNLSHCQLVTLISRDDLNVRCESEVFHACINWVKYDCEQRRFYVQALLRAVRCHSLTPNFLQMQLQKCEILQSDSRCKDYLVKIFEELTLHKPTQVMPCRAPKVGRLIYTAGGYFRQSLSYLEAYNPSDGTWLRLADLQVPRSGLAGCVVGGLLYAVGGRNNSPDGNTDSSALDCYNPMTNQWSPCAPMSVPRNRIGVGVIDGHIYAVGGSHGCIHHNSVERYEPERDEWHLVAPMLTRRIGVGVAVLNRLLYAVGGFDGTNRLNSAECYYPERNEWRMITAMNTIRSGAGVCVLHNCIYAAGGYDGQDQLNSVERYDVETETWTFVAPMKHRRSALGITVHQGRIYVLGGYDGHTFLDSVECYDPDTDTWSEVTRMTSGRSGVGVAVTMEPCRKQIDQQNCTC
T2 sequence (Q14145 321-609): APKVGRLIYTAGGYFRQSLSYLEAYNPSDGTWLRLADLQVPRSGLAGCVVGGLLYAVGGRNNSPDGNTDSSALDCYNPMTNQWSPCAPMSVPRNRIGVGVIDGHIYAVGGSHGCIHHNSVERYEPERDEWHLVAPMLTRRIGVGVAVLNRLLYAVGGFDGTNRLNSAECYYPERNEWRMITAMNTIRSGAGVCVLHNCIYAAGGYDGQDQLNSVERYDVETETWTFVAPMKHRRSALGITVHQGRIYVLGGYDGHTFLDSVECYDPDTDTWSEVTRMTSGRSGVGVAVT

SMILES | IC50 [2] [nM] | IC50 [3] [nM] | EC50 [1] [nM]
C[C@H](Oc1cccc(-c2cccc(-n3ncc(C(=O)O)c3[C@@H]3C[C@H]3c3cnn(C)c3)c2)c1)C1CCCCC1 (racemic) [Example 103, 1-(3′-((S)-1-cyclohexylethoxy)-[1,1′-biphenyl]-3-yl)-5-(trans-2-(1-methyl-1H-pyrazol-4-yl)cyclopropyl)-1H-pyrazole-4-carboxylic Acid] | 1000 to 10000 | 1000 to 10000 | 100 to 1000
Cn1cc([C@@H]2C[C@H]2c2c(C(=O)O)cnn2-c2cccc(-c3cccc(CCC4CCCCC4)c3)c2)nn1 (racemic) [Example 114, rac-1-(3′-(2-Cyclohexylethyl)-[1,1′-biphenyl]-3-yl)-5-(-2-(1-methyl-1H-1,2,3-triazol-4-yl)cyclopropyl)-1H-pyrazole-4-carboxylic Acid] | 10 to 100 | 100 to 1000 | 10 to 100
CCC1COc2ccccc2CN1Cc1cccc(-c2cccc(-n3ncc(C(=O)O)c3[C@H]3C[C@@H]3c3cn(C)nn3)c2)c1 (mixture of isomers) [Example 118, 1-(3′-((3-Ethyl-2,3-dihydrobenzo[f][1,4]oxazepin-4(5H)-yl)methyl)-[1,1′-biphenyl]-3-yl)-5-((1,2-trans)-2-(1-methyl-1H-1,2,3-triazol-4-yl)cyclopropyl)-1H-pyrazole-4-carboxylic Acid] | < 10 | 10 to 100 | 100 to 1000
CC[C@@H]1CN(Cc2cccc(-c3cccc(-n4ncc(C(=O)O)c4[C@@H]4C[C@H]4c4cn(C)nn4)c3)c2)S(=O)(=O)c2cccnc2O1 (racemic) [Example 138, 1-(3′-(((R)-4-ethyl-1,1-dioxido-3,4-dihydro-2H-pyrido[2,3-b][1,4,5]oxathiazepin-2-yl)methyl)-[1,1′-biphenyl]-3-yl)-5-((1,2-trans)-2-(1-methyl-1H-1,2,3-triazol-4-yl)cyclopropyl)-1H-pyrazole-4-carboxylic acid] | < 10 | 10 to 100 | 1000 to 10000
Cn1cc([C@@H]2C[C@H]2c2c(C(=O)O)cnn2-c2cccc(-c3cccc(S(=O)(=O)N4Cc5ccccc5OC(C)(C)C4)c3)c2)nn1 (racemic) [Example 141, 1-(3′-((2,2-Dimethyl-2,3-dihydrobenzo[f][1,4]oxazepin-4(5H)-yl)sulfonyl)-[1,1′-biphenyl]-3-yl)-5-((1,2-trans)-2-(1-methyl-1H-1,2,3-triazol-4-yl)cyclopropyl)-1H-pyrazole-4-carboxylic Acid] | 10 to 100 | 10 to 100 | 100 to 1000
CCCC1CCCCN1S(=O)(=O)c1cccc(-c2cccc(-n3ncc(C(=O)O)c3[C@@H]3C[C@H]3c3cn(C)nn3)c2)c1 (mixture of isomers) [Example 142, 5-((1,2-trans)-2-(1-Methyl-1H-1,2,3-triazol-4-yl)cyclopropyl)-1-(3′-((2-propylpiperidin-1-yl)sulfonyl)-[1,1′-biphenyl]-3-yl)-1H-pyrazole-4-carboxylic Acid] | 10 to 100 | 10 to 100 | 100 to 1000
Cn1cc([C@@H]2C[C@H]2c2c(C(=O)O)cnn2-c2cccc(-c3cccc(S(=O)(=O)N4CCCCC4)c3)c2)nn1 (racemic) [Example 143, 5-((1,2-trans)-2-(1-Methyl-1H-1,2,3-triazol-4-yl)cyclopropyl)-1-(3′-(piperidin-1-ylsulfonyl)-[1,1′-biphenyl]-3-yl)-1H-pyrazole-4-carboxylic Acid] | 10 to 100 | 10 to 100 | 100 to 1000
CC(Oc1cccc(-c2cccc(-n3ncc(C(=O)O)c3[C@H]3C[C@@H]3c3cn(C)nn3)c2)c1)[C@H]1CC[C@H](C(F)(F)F)CC1 (mixture of isomers) [Example 180, 5-((1,2-trans)-2-(1-Methyl-1H-1,2,3-triazol-4-yl)cyclopropyl)-1-(3′-((R)-1-((1R,4R)-4-(trifluoromethyl)cyclohexyl)ethoxy)-[1,1′-biphenyl]-3-yl)-1H-pyrazole-4-carboxylic acid] | 10 to 100 | 100 to 1000 | 1 to 10

Continued, in another order:

IC50 [2] [nM] | IC50 [3] [nM] | SMILES | EC50 [1] [nM]
1000 to 10000 | 1000 to 10000 | C[C@H](Oc1cccc(-c2cccc(-n3ncc(C(=O)O)c3[C@@H]3C[C@H]3CCCO)c2)c1)C1CCCCC1 (racemic) [Example 102, 1-(3′-((S)-1-Cyclohexylethoxy)-[1,1′-biphenyl]-3-yl)-5-(trans-2-(3-hydroxypropyl)cyclopropyl)-1H-pyrazole-4-carboxylic Acid] | 100 to 1000
100 to 1000 | 100 to 1000 | Cn1cc([C@@H]2C[C@H]2c2c(C(=O)O)cnn2-c2cccc(-c3cccc(/C=C/C4CCCCC4)c3)c2)nn1 (racemic) [Example 113, rac-1-(3′-((E)-2-Cyclohexylvinyl)-[1,1′-biphenyl]-3-yl)-5-(trans-2-(1-methyl-1H-1,2,3-triazol-4-yl)cyclopropyl)-1H-pyrazole-4-carboxylic Acid] | 10 to 100
< 10 | 10 to 100 | CCC[C@@H]1CCCCN1C(=O)c1cccc(-c2cccc(-n3ncc(C(=O)O)c3[C@@H]3C[C@H]3c3cc(C)no3)c2)c1F (racemic) [Example 117, 1-(2′-fluoro-3′-((R)-2-propylpiperidine-1-carbonyl)-[1,1′-biphenyl]-3-yl)-5-(trans-2-(3-methylisoxazol-5-yl)cyclopropyl)-1H-pyrazole-4-carboxylic Acid] | 10 to 100
10 to 100 | 10 to 100 | CCC1c2ccccc2OCCN1Cc1cccc(-c2cccc(-n3ncc(C(=O)O)c3[C@H]3C[C@@H]3c3cn(C)nn3)c2)c1 (mixture of isomers) [Example 123, 1-(3′-((5-Ethyl-2,3-dihydrobenzo[f][1,4]oxazepin-4(5H)-yl)methyl)-[1,1′-biphenyl]-3-yl)-5-((1,2-trans)-2-(1-methyl-1H-1,2,3-triazol-4-yl)cyclopropyl)-1H-pyrazole-4-carboxylic Acid] | 10 to 100
100 to 1000 | 100 to 1000 | Cn1cc([C@@H]2C[C@H]2c2c(C(=O)O)cnn2-c2cccc(-c3cccc(CN4Cc5ccccc5CC(C)(C)C4)c3)c2)nn1 (racemic) [Example 126, 1-(3′-((4,4-dimethyl-4,5-dihydro-1H-benzo[c]azepin-2(3H)-yl)methyl)-[1,1′-biphenyl]-3-yl)-5-((1,2-trans)-2-(1-methyl-1H-1,2,3-triazol-4-yl)cyclopropyl)-1H-pyrazole-4-carboxylic Acid] | 100 to 1000
< 10 | 10 to 100 | CC[C@@H]1CN(Cc2cccc(-c3cccc(-n4ncc(C(=O)O)c4[C@H]4C[C@@H]4c4cn(C(C)C)nn4)c3)c2)Cc2ccccc2O1 (racemic) [Example 128, 1-(3′-(((R)-2-ethyl-2,3-dihydrobenzo[f][1,4]oxazepin-4(5H)-yl)methyl)-[1,1′-biphenyl]-3-yl)-5-((1,2-trans)-2-(1-isopropyl-1H-1,2,3-triazol-4-yl)cyclopropyl)-1H-pyrazole-4-carboxylic Acid] | 100 to 1000
10 to 100 | 10 to 100 | CN1CCN(Cc2cccc(-c3cccc(-n4ncc(C(=O)O)c4[C@@H]4C[C@H]4c4cn(C)nn4)c3)c2)S(=O)(=O)c2ccccc21 (racemic) [Example 140, 1-(3′-((5-methyl-1,1-dioxido-4,5-dihydrobenzo[f][1,2,5]thiadiazepin-2(3H)-yl)methyl)-[1,1′-biphenyl]-3-yl)-5-((1,2- trans)-2-(1-methyl-1H-1,2,3-triazol-4-yl)cyclopropyl)-1H-pyrazole-4-carboxylic acid] | 1000 to 10000
